Laboratory results as given in patent publication US20060210479A1 (Dow Global Technologies Inc., priority 2004, published 2006).
Read-outs that look alike come from different tables or passages of the source.

What was measured:
[1] = Solubility of chelate compounds
HEK293 cells = assay: Adsorption of chelate compounds to cells (HPLC and mass spectrometry); format: cell-based, human; settings: for Adsorption HEK293: 50 µM chelate compound, 0, 30 and 90 minutes at 37 °C, % adsorbed relative to time zero
From the text: (§1) As a prerequisite for the understanding of the functional attributes of Tb-PCTMB and Eu-QCTME for diagnostics and therapeutic purposes, and for other uses, it is useful to synthesize a series of chelate compounds that contain structural elements of both PCTMB and QCTME and test these compounds for adsorption and permeability to different cell lines. The first approach was to test for adsorption to a normal cell line (HEK293) and to two epithelial cancer cell lines (LNCaP and Caco-2). The second approach, described in this example, involves testing only the compounds that adsorbed in the cancer cell lines and not in the normal cell lines for permeability. Adsorption and permeability of the compounds to epithelial cancer cell lines and a normal cell line was measured through the detection of the compound by HPLC and mass spectrometry.
(§2) Cell cultures. LNCaP cell line is a human prostate carcinoma. Cells were grown in RPMI 1640 Medium supplemented 10% FBS, 2 mM L-glutamine, glucose (2 g/L) augmented with gentamicin (50 μg/mL), penicillin/streptomycin (100 IU/mL/100 μg/mL) and amphotericin B (2.5 μg/mL). Caco-2 cell line is a human colorectal carcinoma. These cells were grown in Eagle's Minimum Essential Medium supplemented with 20% FBS, Earle's BSS, 2 mM L-glutamine, 1.0 mM sodium pyruvate, 0.1 mM nonessential amino acids augmented with gentamicin (50 μg/mL), penicillin/streptomycin (100 IU/mL/100 μg/mL), and amphotericin B (2.5 μg/mL). The human kidney transformed cells HEK293 were grown in Eagle's Minimum Essential Medium (EMEM) supplemented with 10% (v/v) heat-inactivated fetal bovine serum, sodium pyruvate, nonessential amino acids and antibiotics in a humidified 5% CO2 atmosphere at 37° C. Medium and supplements were purchased from Gibco BRL (Grand Island, N.Y.) and all cell lines were obtained from ATCC.
(§3) Detection of chelate compounds for the determination of adsorption. Cells were grown to confluence in T-150 flasks (about 2×10^7 cells). Before treating with chelate compounds, cells were rinsed twice with warm 10 mM HEPES (Gibco BRL, Grand Island N.Y.), removed from the flask, and transferred to a 50-mL conical tube and centrifuged (400×g) for 5 minutes. The resulting cells were treated with individual chelate compounds with 50 µM of chelate compounds in 10 mM HEPES, pH 7.4, 5 mM KCl, 150 mM NaCl, 0.7 mM NaH2PO4 for 0, 30, and 90 minutes at 37 ° C. After treatment, cells were pelleted by centrifugation and the resulting solution was analyzed by a combination of HPLC and mass spectrometry.

Caco-2 cells = assay: as above; format: cell-based, human; settings: for Adsorption Caco-2: 50 µM chelate compound, 0, 30 and 90 minutes at 37 °C, % adsorbed relative to time zero
From the text: as §1, §2, §3

LNCaP cells = assay: as above; format: cell-based, human; settings: for Adsorption LNCaP: 50 µM chelate compound, 0, 30 and 90 minutes at 37 °C, % adsorbed relative to time zero
From the text: as §1, §2, §3

COP(=O)(O)Cc1cccc(CP(=O)(O)OC)n1 [Compound 4, [6-(Hydroxy-methoxy-phosphorylmethyl)-pyridin-2-ylmethyl]-phosphonic acid monomethyl ester]
solubility ([1]; <5% methanol, ethanol, or DMSO): > 10 mM
adsorption in normal cells (HEK293) (HEK293 cells): adsorbed
Adsorption HEK293 (HEK293 cells): ++ (++ = 21-40%)
adsorption in carcinoma cell line Caco-2 (Caco-2 cells): adsorbed
Adsorption Caco-2 (Caco-2 cells): ++ (++ = 21-40%)
adsorption in carcinoma cell line LNCaP (LNCaP cells): adsorbed
Adsorption LNCaP (LNCaP cells): ++ (++ = 21-40%)

CN(C)Cc1cc(CN(C)C)cc(CN(C)C)c1 [Compound 13, (3,5-Bis-dimethylaminomethyl-benzyl)-dimethylamine]
solubility ([1]; <5% methanol, ethanol, or DMSO): > 10 mM
Adsorption HEK293 (HEK293 cells): 0 (0 = 0-10%)
Adsorption Caco-2 (Caco-2 cells): 0 (0 = 0-10%)
Adsorption LNCaP (LNCaP cells): 0 (0 = 0-10%)

CCCCN(CCCC)Cc1cc(CN(CCCC)CCCC)cc(CN(CCCC)CCCC)c1 [Compound 15, (3,5-Bis-dibutylaminomethyl-benzyl)-dibutyl-amine]
solubility [1]: < 10 mM

CCN(CC)Cc1c(C)c(CN(CC)CC)c(C)c(CN(CC)CC)c1C [Compound 17, (3,5-Bis-diethylaminomethyl-2,4,6-trimethyl-benzyl)-diethyl-amine]
solubility [1]: < 10 mM

CCCCN(CCCC)Cc1c(C)c(CN(CCCC)CCCC)c(C)c(CN(CCCC)CCCC)c1C [Compound 18, (3,5-Bis-dibutylaminomethyl-2,4,6-trimethyl-benzyl)-dibutyl-amine]
solubility [1]: < 10 mM

Cc1c(CN(C)C)c(C)c(CN(C)C)c(C)c1CN(C)C [Compound 16, (3,5-Bis-dimethylaminomethyl-2,4,6-trimethyl-benzyl)-dimethyl-amine]
solubility ([1]; <5% methanol, ethanol, or DMSO): > 10 mM
Adsorption HEK293 (HEK293 cells): 0 (0 = 0-10%)
Adsorption Caco-2 (Caco-2 cells): 0 (0 = 0-10%)
Adsorption LNCaP (LNCaP cells): 0 (0 = 0-10%)

COP(=O)(O)Cc1c(C)c(CP(=O)(O)OC)c(C)c(CP(=O)(O)OC)c1C [Compound 10, [3,5-Bis-(Methoxy-hydroxy-phosphorylmethyl)-2,4,6-trimethyl-benzyl]-phosphonic acid monomethyl ester]
solubility ([1]; <5% methanol, ethanol, or DMSO): > 10 mM
adsorption in normal cells (HEK293) (HEK293 cells): did not adsorb
Adsorption HEK293 (HEK293 cells): 0 (0 = 0-10%)
adsorption in carcinoma cell line Caco-2 (Caco-2 cells): did not adsorb
Adsorption Caco-2 (Caco-2 cells): 0 (0 = 0-10%)
adsorption in carcinoma cell line LNCaP (LNCaP cells): did not adsorb
Adsorption LNCaP (LNCaP cells): 0 (0 = 0-10%)

CCOP(=O)(O)CNCCCN(CCCNCP(=O)(O)OCC)CP(=O)(O)OCC [Compound 20, [(Bis-{3-[(ethoxy-hydroxy-phosphorylmethyl)-amino]-propyl}-amino)-methyl]-phosphonic acid monoethyl ester]
solubility ([1]; <5% methanol, ethanol, or DMSO): > 10 mM
adsorption in normal cells (HEK293) (HEK293 cells): adsorbed
Adsorption HEK293 (HEK293 cells): ++ (++ = 21-40%)
Adsorption Caco-2 (Caco-2 cells): ++ (++ = 21-40%)
adsorption in carcinoma cell line Caco-2 (Caco-2 cells; Caco-2): adsorbed
adsorption in carcinoma cell line LNCaP (LNCaP cells): adsorbed
Adsorption LNCaP (LNCaP cells): ++ (++ = 21-40%)

CCN(CC)CCCN(CC)CCCN(CC)CC [Compound 23, N-(3-Diethylamino-propyl)-N,N′,N′-triethyl-propane-1,3-diamine]
solubility ([1]; <5% methanol, ethanol, or DMSO): > 10 mM
adsorption in normal cells (HEK293) (HEK293 cells): adsorbed
Adsorption HEK293 (HEK293 cells): + (+ = 11-20%)
adsorption in carcinoma cell line Caco-2 (Caco-2 cells): adsorbed
Adsorption Caco-2 (Caco-2 cells): ++ (++ = 21-40%)
adsorption in carcinoma cell line LNCaP (LNCaP cells): adsorbed
Adsorption LNCaP (LNCaP cells): + (+ = 11-20%)

CCOP(=O)(O)Cc1cccc(CP(=O)(O)OCC)n1 [Compound 5, [6-(Hydroxy-ethoxy-phosphorylmethyl)-pyridin-2-ylmethyl]-phosphonic acid monoethyl ester]
solubility ([1]; <5% methanol, ethanol, or DMSO): > 10 mM
Adsorption HEK293 (HEK293 cells): + (+ = 11-20%)
Adsorption Caco-2 (Caco-2 cells): 0 (0 = 0-10%)
Adsorption LNCaP (LNCaP cells): + (+ = 11-20%)

COP(=O)(O)Cc1ccc2cc(C)ccc2n1 [Compound 1]
solubility ([1]; <5% methanol, ethanol, or DMSO): > 10 mM
adsorption in normal cells (HEK293) (HEK293 cells): did not adsorb
Adsorption HEK293 (HEK293 cells): 0 (0 = 0-10%)
adsorption in carcinoma cell line Caco-2 (Caco-2 cells): did not adsorb
Adsorption Caco-2 (Caco-2 cells): 0 (0 = 0-10%)
adsorption in carcinoma cell line LNCaP (LNCaP cells): did not adsorb
Adsorption LNCaP (LNCaP cells): 0 (0 = 0-10%)

COP(=O)(O)Cc1cc(CP(=O)(O)OC)cc(CP(=O)(O)OC)c1 [Compound 7, [3,5-Bis-(Methoxy-hydroxy-phosphorylmethyl)-benzyl]-phosphonic acid monomethyl ester]
solubility ([1]; <5% methanol, ethanol, or DMSO): > 10 mM
adsorption in normal cells (HEK293) (HEK293 cells): did not adsorb
Adsorption HEK293 (HEK293 cells): 0 (0 = 0-10%)
adsorption in carcinoma cell line Caco-2 (Caco-2 cells): did not adsorb
Adsorption Caco-2 (Caco-2 cells): 0 (0 = 0-10%)
adsorption in carcinoma cell line LNCaP (LNCaP cells): did not adsorb
Adsorption LNCaP (LNCaP cells): 0 (0 = 0-10%)

COP(=O)(O)CNCCCN(CCCNCP(=O)(O)OC)CP(=O)(O)OC [Compound 19, [(Bis-{3-[(hydroxy-methoxy-phosphorylmethyl)-amino]-propyl}-amino)-methyl]-phosphonic acid monomethyl ester]
solubility ([1]; <5% methanol, ethanol, or DMSO): > 10 mM
adsorption in normal cells (HEK293) (HEK293 cells): adsorbed
Adsorption HEK293 (HEK293 cells): ++ (++ = 21-40%)
Adsorption Caco-2 (Caco-2 cells): ++ (++ = 21-40%)
adsorption in carcinoma cell line Caco-2 (Caco-2 cells; Caco-2): adsorbed
adsorption in carcinoma cell line LNCaP (LNCaP cells): adsorbed
Adsorption LNCaP (LNCaP cells): ++ (++ = 21-40%)

CCOP(=O)(O)Cc1c(C)c(CP(=O)(O)OCC)c(C)c(CP(=O)(O)OCC)c1C [Compound 11, [3,5-Bis-(Ethoxy-hydroxy-phosphorylmethyl)-2,4,6-trimethyl-benzyl]-phosphonic acid monoethyl ester]
solubility ([1]; <5% methanol, ethanol, or DMSO): > 10 mM
Adsorption HEK293 (HEK293 cells): 0 (0 = 0-10%)
Adsorption Caco-2 (Caco-2 cells): 0 (0 = 0-10%)
Adsorption LNCaP (LNCaP cells): 0 (0 = 0-10%)

CCCCOP(=O)(O)Cc1cccc(CP(=O)(O)OCCCC)n1 [Compound 6, [6-(Hydroxy-butoxy-phosphorylmethyl)-pyridin-2-ylmethyl]-phosphonic acid monobutyl ester]
solubility ([1]; <5% methanol, ethanol, or DMSO): > 10 mM
adsorption in normal cells (HEK293) (HEK293 cells): adsorbed
Adsorption HEK293 (HEK293 cells): +++ (+++ = 41-60%)
adsorption in carcinoma cell line Caco-2 (Caco-2 cells): adsorbed
Adsorption Caco-2 (Caco-2 cells): +++ (+++ = 41-60%)
adsorption in carcinoma cell line LNCaP (LNCaP cells): adsorbed
Adsorption LNCaP (LNCaP cells): +++ (+++ = 41-60%)
